Measured values as given in PMC10436550, “Subacute toxicity evaluations of LPM3480392 in rats, a full µ-opioid receptor biased agonist” (Frontiers in Pharmacology, 2023).

Test: Body weight, 4-week subacute toxicity study
Assay type: in vivo, Sprague Dawley (SD) rats
Protocol: Body weight was recorded twice a week during the dosing phase and then once a week during the recovery phase. Terminal body weight was recorded before each necropsy for calculating the organ weight ratios.

[1] = female rats, 0.6 mg/kg/day, Day 6
[2] = female rats, 0.6 mg/kg/day, Day 9
[3] = female rats, 0.6 mg/kg/day, Day 13
[4] = female rats, 0.6 mg/kg/day, Day 16
[5] = female rats, 0.6 mg/kg/day, Day 20
[6] = female rats, 0.6 mg/kg/day, Day 23
[7] = female rats, 0.6 mg/kg/day, Day 27
[8] = female rats, 0.6 mg/kg/day, Prior to 1st dosing
[9] = female rats, 0.6 mg/kg/day, Recovery day 5
[10] = female rats, 0.6 mg/kg/day, Recovery day 12
[11] = female rats, 0.6 mg/kg/day, Recovery day 19
[12] = female rats, 0.6 mg/kg/day, Recovery day 26
[13] = female rats, 1.2 mg/kg/day, Day 6
[14] = female rats, 1.2 mg/kg/day, Day 9
[15] = female rats, 1.2 mg/kg/day, Day 13
[16] = female rats, 1.2 mg/kg/day, Day 16
[17] = female rats, 1.2 mg/kg/day, Day 20
[18] = female rats, 1.2 mg/kg/day, Day 23
[19] = female rats, 1.2 mg/kg/day, Day 27
[20] = female rats, 1.2 mg/kg/day, Prior to 1st dosing
[21] = female rats, 1.2 mg/kg/day, Recovery day 5
[22] = female rats, 1.2 mg/kg/day, Recovery day 12
[23] = female rats, 1.2 mg/kg/day, Recovery day 19
[24] = female rats, 1.2 mg/kg/day, Recovery day 26
[25] = female rats, 2.4 mg/kg/day, Day 6
[26] = female rats, 2.4 mg/kg/day, Day 9
[27] = female rats, 2.4 mg/kg/day, Day 13
[28] = female rats, 2.4 mg/kg/day, Day 16
[29] = female rats, 2.4 mg/kg/day, Day 20
[30] = female rats, 2.4 mg/kg/day, Day 23
[31] = female rats, 2.4 mg/kg/day, Day 27
[32] = female rats, 2.4 mg/kg/day, Prior to 1st dosing
[33] = female rats, 2.4 mg/kg/day, Recovery day 5
[34] = female rats, 2.4 mg/kg/day, Recovery day 12
[35] = female rats, 2.4 mg/kg/day, Recovery day 19
[36] = female rats, 2.4 mg/kg/day, Recovery day 26
[37] = male rats, 0.6 mg/kg/day, Day 6
[38] = male rats, 0.6 mg/kg/day, Day 9
[39] = male rats, 0.6 mg/kg/day, Day 13
[40] = male rats, 0.6 mg/kg/day, Day 16
[41] = male rats, 0.6 mg/kg/day, Day 20
[42] = male rats, 0.6 mg/kg/day, Day 23
[43] = male rats, 0.6 mg/kg/day, Day 27
[44] = male rats, 0.6 mg/kg/day, Prior to 1st dosing
[45] = male rats, 0.6 mg/kg/day, Recovery day 5
[46] = male rats, 0.6 mg/kg/day, Recovery day 12
[47] = male rats, 0.6 mg/kg/day, Recovery day 19
[48] = male rats, 0.6 mg/kg/day, Recovery day 26
[49] = male rats, 1.2 mg/kg/day, Day 6
[50] = male rats, 1.2 mg/kg/day, Day 9
[51] = male rats, 1.2 mg/kg/day, Day 13
[52] = male rats, 1.2 mg/kg/day, Day 16
[53] = male rats, 1.2 mg/kg/day, Day 20
[54] = male rats, 1.2 mg/kg/day, Day 23
[55] = male rats, 1.2 mg/kg/day, Day 27
[56] = male rats, 1.2 mg/kg/day, Prior to 1st dosing
[57] = male rats, 1.2 mg/kg/day, Recovery day 5
[58] = male rats, 1.2 mg/kg/day, Recovery day 12
[59] = male rats, 1.2 mg/kg/day, Recovery day 19
[60] = male rats, 1.2 mg/kg/day, Recovery day 26
[61] = male rats, 2.4 mg/kg/day, Day 6
[62] = male rats, 2.4 mg/kg/day, Day 9
[63] = male rats, 2.4 mg/kg/day, Day 13
[64] = male rats, 2.4 mg/kg/day, Day 16
[65] = male rats, 2.4 mg/kg/day, Day 20
[66] = male rats, 2.4 mg/kg/day, Day 23
[67] = male rats, 2.4 mg/kg/day, Day 27
[68] = male rats, 2.4 mg/kg/day, Prior to 1st dosing
[69] = male rats, 2.4 mg/kg/day, Recovery day 5
[70] = male rats, 2.4 mg/kg/day, Recovery day 12
[71] = male rats, 2.4 mg/kg/day, Recovery day 19
[72] = male rats, 2.4 mg/kg/day, Recovery day 26

Fc1ccc([C@]2(CCNCc3cccc(Cl)c3)CCO[C@]3(CCOC3)C2)nc1 [LPM3480392]
Body weight [1]: 194.0 ± 11.4 g | Body weight change rate [1]: 4.64% | Body weight [2]: 201.1 ± 13.7 g | Body weight change rate [2]: 5.62% | Body weight [3]: 209.5 ± 13.4 g | Body weight change rate [3]: 7.05% | Body weight [4]: 214.4 ± 13.2 g | Body weight change rate [4]: 6.19% | Body weight [5]: 224.2 ± 15.1 g | Body weight change rate [5]: 6.91% | Body weight [6]: 228.1 ± 15.3 g | Body weight change rate [6]: 5.65% | Body weight [7]: 236.2 ± 15.3 g | Body weight change rate [7]: 8.05% | Body weight [8]: 176.9 ± 7.3 g | Body weight change rate [8]: −0.67% | Body weight [9]: 243.5 ± 9.3 g | Body weight change rate [9]: 5.96% | Body weight [10]: 251.6 ± 10.2 g | Body weight change rate [10]: 6.38% | Body weight [11]: 258.8 ± 12.5 g | Body weight change rate [11]: 2.70% | Body weight [12]: 265.5 ± 15.7 g | Body weight change rate [12]: 3.11% | Body weight [13]: 194.9 ± 10.5 g | Body weight change rate [13]: 5.12% | Body weight [14]: 200.1 ± 12.1 g | Body weight change rate [14]: 5.09% | Body weight [15]: 215.3 ± 11.3 g | Body weight change rate [15]: 10.02% | Body weight [16]: 218.9 ± 12.3 g | Body weight change rate [16]: 8.42% | Body weight [17]: 221.5 ± 14.8 g | Body weight change rate [17]: 5.63% | Body weight [18]: 232.4 ± 16.4 g | Body weight change rate [18]: 7.64% | Body weight [19]: 237.2 ± 15.4 g | Body weight change rate [19]: 8.51% | Body weight [20]: 175.3 ± 7.7 g | Body weight change rate [20]: −1.57% | Body weight [21]: 237.7 ± 13.0 g | Body weight change rate [21]: 3.44% | Body weight [22]: 244.8 ± 13.2 g | Body weight change rate [22]: 3.51% | Body weight [23]: 259.9 ± 16.5 g | Body weight change rate [23]: 3.13% | Body weight [24]: 261.8 ± 22.7 g | Body weight change rate [24]: 1.67% | Body weight [25]: 194.7 ± 11.9 g | Body weight change rate [25]: 5.02% | Body weight [26]: 198.8 ± 14.7 g | Body weight change rate [26]: 4.41% | Body weight [27]: 211.2 ± 13.0 g | Body weight change rate [27]: 7.92% | Body weight [28]: 209.1 ± 13.2 g | Body weight change rate [28]: 3.57% | Body weight [29]: 220.8 ± 15.5 g | Body weight change rate [29]: 5.29% | Body weight [30]: 221.7 ± 19.8 g | Body weight change rate [30]: 2.69% | Body weight [31]: 230.9 ± 19.3 g | Body weight change rate [31]: 5.63% | Body weight [32]: 179.1 ± 8.3 g | Body weight change rate [32]: 0.56% | Body weight [33]: 230.1 ± 19.1 g | Body weight change rate [33]: 0.13% | Body weight [34]: 241.1 ± 21.0 g | Body weight change rate [34]: 1.95% | Body weight [35]: 253.1 ± 25.8 g | Body weight change rate [35]: 0.44% | Body weight [36]: 261.1 ± 25.5 g | Body weight change rate [36]: 1.40% | Body weight [37]: 247.1 ± 9.6 g | Body weight change rate [37]: 1.31% | Body weight [38]: 268.8 ± 11.6 g | Body weight change rate [38]: 2.32% | Body weight [39]: 292.6 ± 13.5 g | Body weight change rate [39]: 0.62% | Body weight [40]: 300.8 ± 12.5 g | Body weight change rate [40]: −2.12% | Body weight [41]: 321.4 ± 15.8 g | Body weight change rate [41]: −0.22% | Body weight [42]: 332.6 ± 17.3 g | Body weight change rate [42]: −0.33% | Body weight [43]: 349.9 ± 20.1 g | Body weight change rate [43]: −0.20% | Body weight [44]: 213.2 ± 11.1 g | Body weight change rate [44]: 0.66% | Body weight [45]: 367.7 ± 23.5 g | Body weight change rate [45]: −4.86% | Body weight [46]: 395.5 ± 24.5 g | Body weight change rate [46]: −4.63% | Body weight [47]: 415.6 ± 25.4 g | Body weight change rate [47]: −5.29% | Body weight [48]: 442.1 ± 24.4 g | Body weight change rate [48]: −4.22% | Body weight [49]: 243.6 ± 12.3 g | Body weight change rate [49]: −0.12% | Body weight [50]: 247.3 ± 10.6 g | Body weight change rate [50]: −5.86% | Body weight [51]: 281.5 ± 15.7 g | Body weight change rate [51]: −3.20% | Body weight [52]: 297.1 ± 19.6 g | Body weight change rate [52]: −3.32% | Body weight [53]: 313.4 ± 22.6 g | Body weight change rate [53]: −2.70% | Body weight [54]: 325.9 ± 21.5 g | Body weight change rate [54]: −2.34% | Body weight [55]: 339.3 ± 23.2 g | Body weight change rate [55]: −3.22% | Body weight [56]: 213.2 ± 9.4 g | Body weight change rate [56]: 0.66% | Body weight [57]: 361.2 ± 14.2 g | Body weight change rate [57]: −6.55% | Body weight [58]: 388.0 ± 14.5 g | Body weight change rate [58]: −6.44% | Body weight [59]: 416.4 ± 19.3 g | Body weight change rate [59]: −5.10% | Body weight [60]: 444.3 ± 23.9 g | Body weight change rate [60]: −3.75% | Body weight [61]: 234.0 ± 21.8 g | Body weight change rate [61]: −4.06% | Body weight [62]: 249.9 ± 31.9 g | Body weight change rate [62]: −4.87% | Body weight [63]: 272.4 ± 27.9 g | Body weight change rate [63]: −6.33% | Body weight [64]: 281.1 ± 31.2 g | Body weight change rate [64]: −8.53% | Body weight [65]: 297.6 ± 36.8 g | Body weight change rate [65]: −7.61% | Body weight [66]: 299.3 ± 36.1 g | Body weight change rate [66]: −10.31% | Body weight [67]: 315.4 ± 36.4 g | Body weight change rate [67]: −10.04% | Body weight [68]: 213.9 ± 12.9 g | Body weight change rate [68]: 0.99% | Body weight [69]: 329.2 ± 48.5 g | Body weight change rate [69]: −14.83% | Body weight [70]: 365.9 ± 50.0 g | Body weight change rate [70]: −11.77% | Body weight [71]: 386.7 ± 51.8 g | Body weight change rate [71]: −11.87% | Body weight [72]: 413.2 ± 56.3 g | Body weight change rate [72]: −10.49%
